Laboratory results from the NIST ThermoML archive (doi:10.1021/je700131z).
± gives the expanded uncertainty stated by the source.

Settings: Crystal; visual observation

Normal melting temperature: 94.50 ± 1.1 °C
Compound: OC[C@@H](O)[C@H](O)[C@@H](O)CO [xylitol]
